Laboratory results reported in patent US4616020A, “Medicaments, vicinal dihydroxyalkylxanthines contained therein, processes for the preparation of these xanthine compounds and intermediate products suitable for these” (Hoechst Aktiengesellschaft, priority 1981, dated 1986).
Like-named read-outs stand apart in the source and are kept apart here.

What was measured:
[1] = Acute toxicity, mortality within 7 days among NMRI mice after single administration; conditions: in vivo, mouse
Text: (§1) Determination of the LD50 values was by the standard method of the mortality occurring within 7 days among NMRI mice after a single intravenous (i.v.), intraperitoneal (i.p.) or oral (p.o.) administration.
*determined by the method of Litchfield and Wilcoxon (J. Pharmacol. exp.

[2] = tested on: histamine-induced bronchospasm; assay: Bronchospasmolytic activity (Konzett-Rossler): inhibition of histamine-induced bronchospasm in guinea-pigs; format: in vivo; conditions: Cavia porcellus, guinea-pig, urethane anaesthesia, read-out: Bronchospasmolytic effect (ED50) compared to histamine
Protocol: (§2) The test substances were administered in aqueous solution either intravenously (i.v.) or intraduodenally (i.d.). The ED50 values, which represent that dose in mg/kg at which the experimentally produced spasm is decreased by one half compared to that in untreated animals, were determined graphically from the dose-activity curves.

[3] = tested on: acetylcholine-induced bronchospasm; assay: Bronchospasmolytic activity (Konzett-Rossler): inhibition of acetylcholine-induced bronchospasm in guinea-pigs; format: in vivo; conditions: Cavia porcellus, guinea-pig, urethane anaesthesia, read-out: Bronchospasmolytic effect (ED50) compared to acetylcholine
Protocol: as §2

[4] = Ratio of LD50 to ED50; format: in vivo, mouse (LD50); guinea-pigs (ED50)
Protocol: as §2, §1

[5] = tested on: serotonine-induced bronchospasm; assay: Bronchospasmolytic activity (Konzett-Rossler): inhibition of serotonine-induced bronchospasm in guinea-pigs; format: in vivo; conditions: Cavia porcellus, guinea-pig, urethane anaesthesia, read-out: Bronchospasmolytic effect (ED50) compared to serotonine
Protocol: as §2

[6] = cited from earlier work
[7] = tested on: NMRI mice; conditions: mouse, i.v.; according to German Offenlegungsschrift 2,716,402; 10080 min; cited from earlier work
[8] = tested on: central nervous system; conditions: according to German Offenlegungsschrift No. 2,716,402; markedly less than theophylline; cited from earlier work
[9] = background statement; cited from earlier work
[10] = background statement; cited from earlier work; remark: listed apart in the source
[11] = tested on: central nervous system; parameters: species or system mice; conditions: mouse, in vivo, po, 50 mg/kg
Protocol: In contrast, the compounds of the formula I according to the invention have no component stimulating the central nervous system, but, on the contrary, exert a slight depressant effect on the central nervous system which is assessed to be particularly advantageous from the therapeutic point of view. Thus, the spontaneous motility of mice, for example, is decreased by 53% for a period of 11 hours after oral administration of 50 mg/kg of the compound from Example 1.

[12] = tested on: bronchospastic reactions induced with aerosols of acetylcholine, histamine and ascaris extract; assay: Pulmonary function test on the anaesthetized dog: inhibition of bronchospastic reactions induced with aerosols of acetylcholine, histamine and ascaris extract; format: in vivo; conditions: 12 mg/kg i.v.
[13] = tested on: bronchospasm induced with bradykinin; assay: Inhibitory effect on bronchospasm induced in guinea-pigs with bradykinin; format: in vivo; conditions: for ED50: Cavia porcellus, guinea-pigs, read-out: ED50, bronchospasm induced with bradykinin
Text: Since it is regarded as proven that, apart from the biogenic amines, acetylcholine, histamine and serotonine, listed in Table 4, bradykinin also plays an important part as a mediator substance in the provocation of asthma attacks, the inhibitory effect on the bronchospasm induced in guinea-pigs with bradykinin was investigated.

[14] = LD50 i.v. mouse, ED50 i.v. guinea-pig

SMILES | ED50 ([2]; iv) | ED50 ([3]; iv) | LD50 at 168 h ([1]; iv) | ED50 ([5]; iv) | ratio of LD50 to ED50 (head is drawing 107) [4, 14] | further results
CCCn1c(=O)c2c(ncn2CCCC(O)CO)n(CCC)c1=O (centres unmarked) [Example 13] | 6.5 mg/kg | 6.5 mg/kg |  |  |  | LD50 at 168 h ([1]; ip): 900 mg/kg; ratio of LD50 to ED50 (head is drawing 107) ([4]; LD50 i.p. mouse, ED50 i.v. guinea-pig): 138
CC(C)CCn1c(=O)c2c(ncn2CCCCC(O)CO)n(C)c1=O (centres unmarked) [Example 22] | 3 mg/kg | 1 mg/kg | 167 mg/kg | 6.5 mg/kg | 48 | 
CCCn1c(=O)c2c(ncn2CC(O)CO)n(CCC)c1=O (centres unmarked) [7-(2,3-dihydroxypropyl)-1,3-dipropylxanthine] | 6.5 mg/kg | > 10 mg/kg |  | 10 mg/kg |  | acute toxicity compared to theophylline ([6]; German Offenlegungsschrift No. 2,716,402): lower acute toxicity; side-effects ([6]; background statement): fewer disadvantageous side-effects; Toxicity LD50 [7]: 287 mg/kg; ratio of LD50 to ED50 (head is drawing 107) ([4]; LD50 i.v. mouse from German Offenlegungsschrift 2,716,402, ED50 i.v. guinea-pig): < 32; stimulation of the central nervous system [8]: stimulation of the central nervous system; water solubility [9]: readily soluble in water; bronchospasmolytic activity compared to theophylline [10]: almost to reach the bronchospasmolytic activity of theophylline
CCCn1c(=O)c2c(ncn2CCCCC(O)CO)n(CC)c1=O (centres unmarked) [Example 1, 3-Ethyl-7-(5,6-dihydroxyhexyl)-1-propylxanthine] | 0.2 mg/kg | 2 mg/kg | 254 mg/kg | 0.3 mg/kg | 305 | LD50 at 168 h ([1]; po): 1450 mg/kg; ED50 ([2]; i.d. (intraduodenal)): 25 mg/kg; decrease in spontaneous motility [11]: 53%; inhibitory effect on bronchospastic reactions [12]: significant inhibitory effect; ED50 ([5]; i.d. (intraduodenal)): 15 mg/kg; ED50 ([3]; i.d. (intraduodenal)): 6.3 mg/kg; ratio of LD50 to ED50 (head is drawing 107) ([4]; LD50 p.o. mouse, ED50 i.d. guinea-pig): 94; ED50 ([13]; iv): 1 to 3 mg/kg; ED50 ([13]; i.d.): 4 to 6.3 mg/kg; times more effective than theophylline-ethylenediamine, bradykinin bronchospasm ([13]; i.d.): about 6 times; times more effective than theophylline-ethylenediamine, bradykinin bronchospasm ([13]; i.v.): about 3 times
CCCn1c(=O)n(CCCCC(O)CO)c(=O)c2c1ncn2C (centres unmarked) [Example 10] | 3 mg/kg | 3 mg/kg | 250 mg/kg | 3 mg/kg | 83 | 
CCCn1c(=O)c2c(ncn2CCCC(O)C(C)O)n(CC)c1=O (centres unmarked) [Example 33] | 3 mg/kg | 6 mg/kg | > 200 mg/kg | 2 mg/kg | > 55 | 
CCCCCn1c(=O)c2c(ncn2CCCCC(O)CO)n(C)c1=O (centres unmarked) [Example 21] | 3 mg/kg | 3 mg/kg | 155 mg/kg | 3 mg/kg | 52 | 
CCn1c(=O)c2c(ncn2CC)n(CCCCC(O)CO)c1=O (centres unmarked) [Example 8, 1,7-Diethyl-3-(5,6-dihydroxyhexyl)xanthine] | 6.5 mg/kg | 6.5 mg/kg | > 300 mg/kg | 2 mg/kg | > 60 | 
CCCCn1c(=O)c2c(ncn2CCCCC(O)CO)n(C)c1=O (centres unmarked) [Example 19] | 2 mg/kg | 2 mg/kg | 147 mg/kg | 3 mg/kg | 63 | 
CCn1c(=O)n(C(C)C)c(=O)c2c1ncn2CCCCC(O)CO (centres unmarked) [Example 25] | 6.5 mg/kg | 2 mg/kg | > 400 mg/kg | 2 mg/kg | > 114 | 
CCCCn1c(=O)n(CCCC(O)CO)c(=O)c2c1ncn2C (centres unmarked) [Example 7, 3-Butyl-1-(4,5-dihydroxypentyl)-7-methylxanthine] | 6.5 mg/kg | 3 mg/kg | > 200 mg/kg |  | > 42 | 
CCCCn1c(=O)c2c(ncn2CCCCC(O)CO)n(CC)c1=O (centres unmarked) [Example 26] | 1.6 mg/kg | 2 mg/kg | 205 mg/kg | 0.6 mg/kg | 146 | 
